Marks after values point to notes of the source that are not given here.
Test system: P50 auditory evoked potential in schizophrenic patients
Assay: P50 auditory evoked potential in schizophrenic patients before and 1 h after administration of tropisetron
Assay type: in vivo, human
Experimental: Twenty-two patients with schizophrenia (14 males and 8 females, average age: 39.8 years old (standard deviation 14.0), age range: 18-60 years old) were selected as subjects. The subjects were diagnosed by psychiatrists on the basis of DSM-IV criteria. Psychiatric symptoms and cognitive functions of the subjects were evaluated using Brief Psychiatric Rating Scale (BPRS), Global Assessment of Functioning (GAF), Mini-Mental State Examination (MMSE) and Wechsler Adult Intelligence Scale-Revised (WAIS-R).
First, a baseline P50 auditory evoked potential of a subject was measured (conditioning P50), then the P50 was measured 1 h after administration of 10 mg of tropisetron (test P50). P50 is a positive brain wave which appears approximately 50 m seconds after an auditory stimulus. Consecutive click sounds with an interval of 500 m seconds (conditioning stimulus and test stimulus) at 70 dB were presented every 10 seconds for 120 times, and the brain wave measured at the parietal region was summed to identify P50. The resistance of an electrode was set at 10 kW or less, and the brain wave exceeding ±70 mV was omitted as artifact. The largest positive wave between 40 ms and 90 ms after the conditioning stimulus was designated to be the conditioning P50, and the positive wave after the test stimulus whose latency is the closest to that of the conditioning P50 was designated to be the test P50. The amplitude of P50 was defined as the difference between the positive peak and the preceding negative trough. The P50 ratio was defined as the amplitude of the test P50 divided by the amplitude of the conditioning P50.
Data were expressed as average±standard deviation. The statistical analysis between two groups was performed using Student's t-test. The relationship between variables was confirmed by Pearson's product-moment correlation coefficient. p Values of 0.05 or less were designated to be statistically significant.

[1] = 1 h after administration of 10 mg tropisetron, 19 subjects with baseline P50 ratio larger than 0.5

## CN1[C@@H]2CC[C@H]1C[C@@H](OC(=O)c1c[nH]c3ccccc13)C2 [tropisetron, (1R,3r,5S)-8-methyl-8-azabicyclo[3.2.1]oct-3-yl 1H-indole-3-carboxylate]
10 mg tropisetron, 1 h, 19 subjects, t=0.79, df=18, p=0.44
  Change in amplitude of conditioning P50 between before and after administration: no significant differences
10 mg tropisetron, 1 h, 19 subjects, t=1.05, df=18, p=0.31
  Change in latency of conditioning P50 between before and after administration: no significant differences
10 mg tropisetron, 1 h, 19 subjects, t=2.32, df=18, p=0.033
  Change in P50 ratio between before and after administration: significant decrease
[1]
  Latency, conditioning P50, After, Mean: 59.79 ms
  Latency, test P50, After, Mean: 59.16 ms
1 h after administration of 10 mg tropisetron, 19 subjects with baseline P50 ratio larger than 0.5, amplitude of test P50 divided by amplitude of conditioning P50
  P50(T/C)ratio, After, Mean: 0.61*
Conclusion drawn from the decrease in P50 ratios in patients with schizophrenia
  Effect on cognitive dysfunction in schizophrenia: improves cognitive dysfunction in schizophrenia
Of 19 subjects with baseline P50 ratio larger than 0.5, after 10 mg tropisetron
  Number of subjects in whom the P50 ratio improved to 0.5 or less: four
